# Experimental data from US12306191B2, “Composition for diagnosis of degenerative neurological diseases” (KYUNGPOOK NATIONAL UNIVERSITY INDUSTRY—ACADEMIC COOPERATION …, priority 2018, dated 2025).
# Legend:
# [1] = system: APP/PS1 mice; assay: Immunofluorescence of microglia (Iba1) and astrocytes (GFAP) in brain cortex of injected APP/PS1 mice; assay type: in vivo, mouse; details: 7-month-old APP/PS1 mice, i.p. daily 4 weeks, 5 mg/kg N-acetyl sphingosine, 1 mg/kg FTY720, 3 uM S1P; for microglia compared to APP/PS1 mice: FIG. 9a; for astrocytes compared to APP/PS1 mice: FIG. 9b
# Protocol: (§1) After the cerebrum and the hippocampus of a mouse were immobilized, anti-20G10 against amyloid-β (Aβ) 42 (mouse, 1:1000) and anti-G30 against Aβ 40 (rabbit, 1:1000), anti-MAP2 (chicken, 1:2000), anti-Synaptophysin (mouse, 1:100), anti-Synapsin1 (rabbit, 1:500), anti-PSD95 (mouse, 1:100), anti-Iba-1 (rabbit, 1:500), and anti-GFAP (rabbit, 1:500) were incubated together. The sites were analyzed using a confocal laser scanning microscope or an Olympus BX51 microscope equipped with Fluoview SV1000 imaging software (Olympus FV1000, Japan). Percentages of areas of the stained sites to an area of total tissues were quantified using Metamorph software (Molecular Devices).
# (§2) In order to measure neuroinflammatory resolution factor, nerve cells from the mouse's cerebrum were incubated and then treated with 10 nM N-acetyl sphingosine 1 phsosphate (Toronto Research chemicals, C262710) and N-acetyl sphingosine (Sigma, 01912) to prepare CM. For COX2 acetylation analysis, nerve cells were incubated from the mouse's cerebrum and treated with 2uCi [^14C] N-acetyl sphingosine (ARC, ARC1024) and then prepared. In addition, for an in vivo experiment, 5 mg/kg N-acetyl sphingosine (Sigma, 01912), 1 mg/kg FTY720, and 3 uM S1P were injected into 7-month-old APP/PS1 mice daily for 4 weeks through intraperitoneal injection.
# The present inventors confirmed AD lesions by injecting N-acetyl sphingosine, one of COX2 acetylating agents identified through the above experiment, into an APP/PS1 animal model. First, in order to determine an effect of N-acetyl sphingosine on neuroinflammatory response by secreting the neuroinflammatory resolution factor, changes in microglia and astrocytes were observed. […] However, when sphingosine derivatives FTY720 and S1P were injected, there was no difference in the activity of microglia and astrocytes compared to the Alzheimer's animal model, and there was no effect of reducing Aβ deposition and improving memory (FIGS. 9a and 9b).
# [2] = system: APP/PS1 nerve cells; assay: Secretion of neuroinflammatory resolution factor in APP/PS1 nerve cells treated with COX2 acetylating agent; assay type: cell-based, mouse; details: 10 nM, FIG. 8b
# Protocol: A commercially available ELISA kit (Biosource) was used, and the hemispheres of mice were homogenized and added in a buffer containing 0.02 M of guanidine to prepare a sample for Aβ ELISA. In order to measure neuroinflammatory resolution factor, nerve cells from the mouse cerebrum were incubated to prepare conditioned media (CM). Thereafter, according to the manufacturer's manual, ELISA for Aβ and SPM was performed.
# as §2
# First, in order to confirm whether the selected compounds promote the secretion of neuroinflammatory resolution factor in nerve cells, APP/PS1 nerve cells were treated with N-acetyl sphingosine 1 phsosphate or N-acetyl sphingosine, and then the expression levels of the neuroinflammatory resolution factor were confirmed. As a result, it was confirmed that the expression levels of LxA4 and RvE1 in nerve cells of APP/PS1 mice were recovered when treated with N-acetyl sphingosine 1 phsosphate or N-acetyl sphingosine (FIG. 8b).
# [3] = system: COX2; assay: COX2 acetylation analysis with [14C] N-acetyl sphingosine; assay type: cell-based, mouse; details: 2uCi [14C] N-acetyl sphingosine; FIG. 8c
# Protocol: as §2
# [4] = target: T1, COX2 (Homo sapiens, UniProt P35354); assay: LC-MS/MS identification of the acetylation site of COX2; assay type: biochemical; details: FIG. 8d
# T1 sequence (P35354 18-604): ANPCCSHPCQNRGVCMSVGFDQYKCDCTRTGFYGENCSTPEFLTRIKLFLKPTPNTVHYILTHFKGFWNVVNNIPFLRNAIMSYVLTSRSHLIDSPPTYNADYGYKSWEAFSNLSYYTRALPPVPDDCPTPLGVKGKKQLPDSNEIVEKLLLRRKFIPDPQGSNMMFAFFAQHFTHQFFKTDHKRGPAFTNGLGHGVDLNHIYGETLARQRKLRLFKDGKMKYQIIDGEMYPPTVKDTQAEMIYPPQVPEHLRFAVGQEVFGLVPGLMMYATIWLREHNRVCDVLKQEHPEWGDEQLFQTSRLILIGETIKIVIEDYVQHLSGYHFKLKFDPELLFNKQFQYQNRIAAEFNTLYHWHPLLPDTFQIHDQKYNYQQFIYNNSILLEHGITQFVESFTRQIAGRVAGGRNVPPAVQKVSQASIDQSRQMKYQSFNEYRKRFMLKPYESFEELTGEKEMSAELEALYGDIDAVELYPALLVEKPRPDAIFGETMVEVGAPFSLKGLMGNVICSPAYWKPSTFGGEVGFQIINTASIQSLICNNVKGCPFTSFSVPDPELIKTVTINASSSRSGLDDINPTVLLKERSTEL
# Protocol: To confirm an acetylation site of COX2, a COX2 enzyme was precipitated with trichroloacetic acid (Merck) and dried. The dried extract was resuspended in 10 μL of a 5 M urea solution, and a 0.1 M ammonium bicarbonate buffer was incubated at 37° C. with 1 μg trypsin (Promega) for 16 hours. Thereafter, the sample was treated with 1 M DTT (GE Healthcare) at room temperature for 1 hour and then alkylated with 1M iodoacetamide (Sigma) for 1 hour. A protein sample was loaded onto a ZORBAX 300SB-C18 column for sequencing. Peptides were identified with BioTools 3.2 SR5 (Bruker Daltonics).
# In addition, it was confirmed that serine 565 (S565) for a peptide 560-[…]-575 of COX2 was acetylated in the presence of N-acetyl sphingosine (FIG. 8d).
# [5] = target: T1, COX2; assay: Western blot of recombinant COX2 protein with ac-S565 antibody after aspirin or N-AS treatment; assay type: biochemical; details: FIG. 10
# Protocol: (§3) In addition, a Western blot sample was prepared by reacting a recombinant COX2 protein with aspirin and N-acetyl sphingosine (Sigma, 01912, N-AS). In addition, microglia were isolated from the cerebra of wild-type and APP/PS1 9-month-old mice to prepare a Western blot sample, and microglia (Applied Biologics Materials, USA) were incubated with amyloid beta, and then a Western blot sample was prepared. The prepared Western blot sample was subjected to electrophoresis on a polyacrylamide gel to isolate proteins, transferred to a nitrocellulose filter, and then bound with anti-ac-S565 (rabbit, 1:500), anti-COX2 (rabbit, 1:1,000, Abcam), and anti-actin (mouse, 1:1,000, Santa Cruz) antibodies, and then bands were shaped using secondary antibodies, and quantified and analyzed using ImageJ (National Institutes of Health, USA).
# [6] = system: APP/PS1 mice; assay: Morris Water Maze test of injected APP/PS1 mice; assay type: in vivo, mouse; details: 7-month-old APP/PS1 mice, i.p. daily 4 weeks; 5 mg/kg N-acetyl sphingosine, 1 mg/kg FTY720, 3 uM S1P; FIG. 9d
# Protocol: In order to confirm potential effects on learning and memory, Morris water maze (MWM) and fear conditioning tests were performed. In the MWM, the mouse learned a task 4 times a day for 10 days, a platform was removed on day 11, and a probe trial was performed. In the fear conditioning, on day 1, the mouse was added in a conditioning chamber, and sound stimulation (10 kHz, 70 dB) and electrical stimulation (0.3 mA, 1 s) were applied. On day 2, the memory on a space was confirmed without stimulation in the same conditioning chamber as day 1, and on day 3, a memory test for fear was performed when only the sound stimulation was applied in another conditioning chamber. An open field test was performed to evaluate motor ability and immediate activity. In the open field test, the mouse was placed in a quadrangular box for 10 minutes and then overall motor ability and time and distances were measured.
# as §2, with “In addition, for an in vivo experiment, 5 mg/kg N-acetyl sphingosine (Sigma, 01912), 1 mg/kg FTY720, and 3 uM S1P were injected into 7-month-old APP/PS1 mice daily for 4 weeks through intraperitoneal injection.” left out
# [7] = system: APP/PS1 mice; assay: Thioflavin S staining of Aβ plaques in brain of injected APP/PS1 mice; assay type: in vivo, mouse; details: 7-month-old APP/PS1 mice, i.p. daily 4 weeks; 5 mg/kg N-acetyl sphingosine, 1 mg/kg FTY720, 3 uM S1P; FIG. 9c
# Protocol: as §1
# as §2, with “injection. […]” for “injection.”
# [8] = target: SphK1 (Homo sapiens, UniProt Q9NYA1); details: read-out: KM of acetyl group binding to SphK1; in the presence of 10 mM sphingosine; FIG. 1a
# [9] = system: human-derived microglia; assay: Fluorescence immunostaining of COX2 and ac-S565 in human-derived microglia treated with amyloid beta; assay type: cell-based; details: FIGS. 13a, 13b
# Protocol: In addition, cerebral tissues of wild-type and APP/PS1 9-month-old mice and human-derived microglia were incubated together with anti-ac-S565 (rabbit, 1:100), anti-COX2 (mouse, 1:500, Thermo Fisher Scientific), and anti-Iba1 (goat, 1:500, Abcam). In the cerebral tissues and the human-derived microglia, percentages of cells stained with anti-ac-S565, anti-COX2 and anti-Iba1 among cells stained with anti-COX2 and anti-Iba1 were quantified and analyzed using MetaMorph (Molecular Devices, USA).
# The present inventors created a neuroinflammatory environment by treating human-derived microglia with amyloid beta, and then confirmed the level of S565 acetylation of COX2 through fluorescence immunostaining.
# [10] = system: human-derived microglia; assay: Western blotting of COX2 and ac-S565 in human-derived microglia treated with amyloid beta; assay type: cell-based; details: FIGS. 14a, 14b
# Protocol: as §3
# The present inventors created a neuroinflammatory environment by treating human-derived microglia with amyloid beta, and then reconfirmed the level of S565 acetylation of COX2 through Western blotting.
# Chain of SphK1 (Q9NYA1 whole entry, species assumed): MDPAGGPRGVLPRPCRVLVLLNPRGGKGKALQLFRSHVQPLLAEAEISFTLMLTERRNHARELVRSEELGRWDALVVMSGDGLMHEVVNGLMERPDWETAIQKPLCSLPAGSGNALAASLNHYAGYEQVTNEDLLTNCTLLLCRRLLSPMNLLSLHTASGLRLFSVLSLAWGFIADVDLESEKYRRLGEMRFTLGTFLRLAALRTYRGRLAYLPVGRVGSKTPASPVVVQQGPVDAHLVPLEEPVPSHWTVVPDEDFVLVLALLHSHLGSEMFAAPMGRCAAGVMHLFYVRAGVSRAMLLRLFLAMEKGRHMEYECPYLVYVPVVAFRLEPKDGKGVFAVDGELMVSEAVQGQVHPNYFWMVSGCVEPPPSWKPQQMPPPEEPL
compound,measurement,setting,value
CCCCCCCCc1ccc(CCC(N)(CO)CO)cc1 [FTY720],microglia compared to APP/PS1 mice,[1],no difference
same,astrocytes compared to APP/PS1 mice,[1],no difference
CCCCCCCCCCCCC/C=C/[C@@H](O)[C@H](COP(=O)(O)O)NC(C)=O [N-acetyl sphingosine 1 phsosphate],expression level of LxA4,[2],recovered
same,expression level of RvE1,[2],recovered
CCCCCCCCCCCCC/C=C/[C@@H](O)[C@H](CO)NC(C)=O [N-acetyl sphingosine],"COX2 acetylation compared with sample mixed with SphK1, acetyl-CoA and sphingosine",[3],more acetylation
same,acetylation of serine 565 (S565) of COX2 peptide 560-575,[4],acetylated
same,ac-S565 band of treated COX2 in Western blot (S565 acetylation),[5],strongly shown
same,memory and cognition,[6],improved
same,expression level of LxA4,[2],recovered
same,expression level of RvE1,[2],recovered
same,amount of Aβ / Aβ deposition compared to APP/PS1 mice,[7],significantly lowered
same,microglia compared to APP/PS1 mice,[1],remarkable decrease
same,astrocytes compared to APP/PS1 mice,[1],remarkable decrease
"CCCCCCCCCCCCC/C=C/[C@@H](O)[C@@H](N)COP(=O)(O)O [S1P, sphingosine-1-phosphate]",memory and cognition,[6],no effect
same,amount of Aβ / Aβ deposition compared to APP/PS1 mice,[7],no effect
same,microglia compared to APP/PS1 mice,[1],no difference
same,astrocytes compared to APP/PS1 mice,[1],no difference
CC(=O)SCCNC(=O)CCNC(=O)[C@H](O)C(C)(C)COP(=O)(O)OP(=O)(O)OC[C@H]1O[C@@H](n2cnc3c(N)ncnc32)[C@H](O)[C@@H]1OP(=O)(O)O [acetyl-CoA],Km,[8],58.2 µM
CC(=O)Oc1ccccc1C(=O)O [aspirin],ac-S565 band of treated COX2 in Western blot (S565 acetylation),[5],hardly detected
amyloid beta: amyloid beta used to treat human-derived microglia to create a neuroinflammatory environment,S565 acetylation of COX2 in microglia,[9],decreased
same,expression of COX2 in microglia,[9],increased
same,S565 acetylation of COX2 in microglia,[10],decreased
same,expression of COX2 in microglia,[10],increased
